Assay [1] concerns the target T1, human recombinant 5-HT2A receptor (Homo sapiens, UniProt P28223).
T1 construct: expressed in transfected cells; host or cells: NIH3T3
The assay is described as follows: Affinity for 5-HT2A receptor binding sites (competitive radioligand binding, [3H]ketanserin). As to conditions: membranes of NIH3T3 with h5-HT2A, * = tested as hydrochloride salt. Here is the method:
(§1) Stock drug solutions (10 mM) were prepared in DMSO (the final assay concentration of DMSO not exceeding 0.4%). Drug dilutions were prepared in assay buffer.
(§2) Sigmoidal inhibition curves were generated and fitted by nonlinear regression analysis (GraphPad Prism).
(§3) 2. Affinity for 5HT2 Receptor Binding Sites
(§4) Receptor binding was performed using the human recombinant 5-HT2A (GB: X57830), 5-HT2B (GB: Z36748) and 5-HT2C (GB: M81778) receptors. The affinity of the compounds for the 3 different human 5-HT2 receptor subtypes was evaluated by competitive radioligand binding assays using [^3H]ketanserin (h5-HT2A) or [^3H]mesulergine (h5-HT2B and h5-HT2C). The assays were performed on membranes prepared from NIH3T3 stably transfected with h5-HT2A or CHO stably transfected with h5-HT2B and h5-HT2C.

Assay [2] addresses T2, human recombinant 5-HT2B receptor (Homo sapiens, UniProt P41595).
T2 construct: expressed in transfected cells; host or cells: CHO
The assay is described as follows: Affinity for 5-HT2B receptor binding sites (competitive radioligand binding, [3H]mesulergine). As to conditions: membranes of CHO with h5-HT2B, * = tested as hydrochloride salt. The protocol: as §1, §2, §3, §4

Assay [3] deals with T3, human recombinant 5-HT2C receptor (Homo sapiens, UniProt P28335).
T3 construct: expressed in transfected cells; host or cells: CHO
T3 sequence (P28335 33-458): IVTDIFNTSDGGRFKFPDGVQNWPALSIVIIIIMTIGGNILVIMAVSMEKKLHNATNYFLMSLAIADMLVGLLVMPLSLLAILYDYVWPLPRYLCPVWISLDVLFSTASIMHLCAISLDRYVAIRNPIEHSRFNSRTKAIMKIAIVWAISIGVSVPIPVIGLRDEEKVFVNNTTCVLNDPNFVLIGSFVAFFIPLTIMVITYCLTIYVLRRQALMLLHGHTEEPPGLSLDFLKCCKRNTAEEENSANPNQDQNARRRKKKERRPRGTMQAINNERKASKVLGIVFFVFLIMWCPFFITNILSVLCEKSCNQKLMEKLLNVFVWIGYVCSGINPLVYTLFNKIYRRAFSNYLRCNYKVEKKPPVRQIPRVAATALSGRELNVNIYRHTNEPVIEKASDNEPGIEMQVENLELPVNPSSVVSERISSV
The assay is described as follows: Affinity for 5-HT2C receptor binding sites (competitive radioligand binding, [3H]mesulergine). The note with it: membranes of CHO with h5-HT2C, * = tested as hydrochloride salt. Here is the method:
as §1, §2, §3, §4

Assay [4] deals with T4, human recombinant 5-HT6 receptor (Homo sapiens, UniProt P50406).
T4 construct: expressed in transfected cells; host or cells: HEK-293
Put plainly: Affinity for 5-HT6 receptor binding sites (competitive radioligand binding, [3H]LSD). The note with it: membranes of HEK-293 with h5-HT6, * = tested as hydrochloride salt. The protocol: as §1, §2
3. Affinity for 5-HT6 Receptor Binding Sites
Receptor binding was performed using the human recombinant 5-HT6 (GB: BC0794995) receptor. The affinity of the compounds for the human 5-HT6 receptor was evaluated by competitive radioligand binding assays using [^3H]LSD. The assays were performed on membranes prepared from HEK-293 stably transfected with h5-HT6. Non-specific binding was estimated in the presence of 1 μM clozapine.

T4 sequence (P50406 whole entry): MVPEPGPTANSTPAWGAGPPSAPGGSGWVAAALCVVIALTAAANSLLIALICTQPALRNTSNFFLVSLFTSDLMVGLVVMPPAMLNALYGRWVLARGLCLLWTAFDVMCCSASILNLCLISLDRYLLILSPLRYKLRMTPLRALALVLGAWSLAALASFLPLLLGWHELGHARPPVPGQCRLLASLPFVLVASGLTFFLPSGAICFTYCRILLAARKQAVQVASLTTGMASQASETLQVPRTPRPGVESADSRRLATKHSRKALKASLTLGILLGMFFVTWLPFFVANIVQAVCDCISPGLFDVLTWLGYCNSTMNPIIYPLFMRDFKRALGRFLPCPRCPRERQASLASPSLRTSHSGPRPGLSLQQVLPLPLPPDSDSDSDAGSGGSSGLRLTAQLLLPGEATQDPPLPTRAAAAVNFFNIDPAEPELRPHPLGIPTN
T1 sequence (P28223 whole entry): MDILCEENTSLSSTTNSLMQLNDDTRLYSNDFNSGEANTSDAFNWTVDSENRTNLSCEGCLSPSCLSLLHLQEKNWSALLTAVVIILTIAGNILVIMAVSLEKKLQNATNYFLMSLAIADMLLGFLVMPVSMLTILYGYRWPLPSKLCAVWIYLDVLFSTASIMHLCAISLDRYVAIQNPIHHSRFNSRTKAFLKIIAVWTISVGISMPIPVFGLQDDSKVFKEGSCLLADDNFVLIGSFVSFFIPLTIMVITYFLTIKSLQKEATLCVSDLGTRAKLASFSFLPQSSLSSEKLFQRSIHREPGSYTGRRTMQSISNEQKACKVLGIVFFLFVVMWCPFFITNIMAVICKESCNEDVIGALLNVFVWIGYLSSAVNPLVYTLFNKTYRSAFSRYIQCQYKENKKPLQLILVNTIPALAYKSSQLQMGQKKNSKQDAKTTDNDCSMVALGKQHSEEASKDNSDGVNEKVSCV
T2 sequence (P41595 whole entry): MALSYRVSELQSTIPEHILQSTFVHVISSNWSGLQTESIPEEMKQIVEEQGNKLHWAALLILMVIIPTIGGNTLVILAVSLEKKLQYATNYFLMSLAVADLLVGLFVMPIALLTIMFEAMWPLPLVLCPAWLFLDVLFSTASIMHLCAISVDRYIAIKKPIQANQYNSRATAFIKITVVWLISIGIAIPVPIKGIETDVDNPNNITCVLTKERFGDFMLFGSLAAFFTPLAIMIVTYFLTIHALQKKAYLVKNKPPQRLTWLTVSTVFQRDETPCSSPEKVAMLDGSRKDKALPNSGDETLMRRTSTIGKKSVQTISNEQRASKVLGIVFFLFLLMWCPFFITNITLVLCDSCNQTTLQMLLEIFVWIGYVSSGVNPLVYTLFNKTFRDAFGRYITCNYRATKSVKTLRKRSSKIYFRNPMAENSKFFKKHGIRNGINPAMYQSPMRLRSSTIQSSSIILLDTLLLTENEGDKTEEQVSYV

Usually Ki stands for a dissociation constant, usually derived from enzyme kinetics or from competition with a known ligand. `CC1CCCN1c1nc2c(c(-c3ccc(Cl)cc3)n1)CNCCC2` (stereo not drawn) [Example 53, 4-(4-Chloro-phenyl)-2-(2-methyl-pyrrolidin-1-yl)-6,7,8,9-tetrahydro-5H-1,3,6-triaza-benzocycloheptene]: the results for the Ki in assay [1], in assay [2] and in assay [3] were 2000 nM, 1200 nM and above 10000 nM, respectively.
For the molecule `Clc1ccc(-c2nc(NCc3ccccc3)nc3c2CNCCC3)cc1` [Example 55, Benzyl-[4-(4-chloro-phenyl)-6,7,8,9-tetrahydro-5H-1,3,6-triaza-benzocyclohepten-2-yl]-amine], the Ki in assay [1] was 50 nM; in assay [2], above 10000 nM; in assay [3], 1100 nM.
For the molecule `Clc1ccc(-c2nc(N3CCOCC3)nc3c2CNCCC3)cc1` [Example 57, 4-(4-Chloro-phenyl)-2-morpholin-4-yl-6,7,8,9-tetrahydro-5H-1,3,6-triaza-benzocycloheptene], the Ki in assay [1] was 500 nM; in assay [2] it was above 10000 nM; in assay [3], above 10000 nM; in assay [4], 2290 nM.
As to `Clc1ccc(-c2nc(N3CCOCC3)nc3c2CCNCC3)cc1` [Example 58, 4-(4-Chloro-phenyl)-2-morpholin-4-yl-6,7,8,9-tetrahydro-5H-pyrimido[4,5-d]azepine], the Ki was determined as 17 nM in assay [1], 30 nM in assay [2], 20 nM in assay [3] and 102 nM in assay [4].
As to `Cc1ccc(-c2nc(N3CCS(=O)(=O)CC3)nc3c2CCNCC3)cc1` [Example 64, 2-(1,1-Dioxo-1λ^6-thiomorpholin-4-yl)-4-p-tolyl-6,7,8,9-tetrahydro-5H-pyrimido[4,5-d]azepine], the Ki in assay [1] is 520 nM; in assay [2], 620 nM; in assay [3], 1260 nM; in assay [4] it was 29 nM.
Consider `Cc1ccc(-c2nc(N3CCS(=O)(=O)CC3)nc3c2CCN(C)CC3)cc1` [Example 65, 2-(1,1-Dioxo-1λ^6-thiomorpholin-4-yl)-7-methyl-4-p-tolyl-6,7,8,9-tetrahydro-5H-pyrimido[4,5-d]azepine], for which the Ki amounted to 280 nM in assay [2], 960 nM in assay [3] and 41 nM in assay [4].
In the case of `COc1ccc(-c2nc(N3CCCC3C)nc3c2CCNCC3)cc1Cl` (stereo not drawn) [Example 66, 4-(3-chloro-4-methoxyphenyl)-6,7,8,9-tetrahydro-2-(2-methyl-1-pyrrolidinyl)-5H-pyrimido[4,5-d]azepine], the Ki in assay [1] came to 61 nM; in assay [2], 8 nM; in assay [3] it was 46 nM; in assay [4], 47 nM.
Turning to `FC1CCN(c2nc3c(c(-c4ccc(Cl)c(Cl)c4)n2)CCNCC3)CC1` [Example 67, 4-(3,4-dichlorophenyl)-2-(4-fluoro-1-piperidinyl)-6,7,8,9-tetrahydro-5H-pyrimido[4,5-d]azepine], in assay [4], the Ki was 96 nM.
As for `FC1CCN(c2nc3c(c(-c4ccc(Cl)cc4)n2)CCNCC3)CC1` [Example 68, 4-(4-chlorophenyl)-2-(4-fluoro-1-piperidinyl)-6,7,8,9-tetrahydro-5H-pyrimido[4,5-d]azepine], the Ki in assay [1] is 19 nM; in assay [2], 6 nM; in assay [3], 5 nM; in assay [4], 29 nM.
Taken in the same sequence, the figures for `Cc1ccc(-c2nc(N3CCC(F)CC3)nc3c2CCNCC3)cc1` [Example 69, 2-(4-fluoro-1-piperidinyl)-6,7,8,9-tetrahydro-4-(4-methylphenyl)-5H-pyrimido[4,5-d]azepine] were 35 nM, 5 nM, 5 nM and 13 nM.
Taken in the same sequence, the figures for `C[C@@H]1CCC[C@H](C)N1c1nc2c(c(-c3ccc(Cl)cc3)n1)CCNCC2` [Example 70, 4-(4-chlorophenyl)-2-[(2R,6S)-2,6-dimethyl-1-piperidinyl]-6,7,8,9-tetrahydro-5H-pyrimido[4,5-d]azepine] were 54 nM, 2 nM, 12 nM and 19 nM.
Take `Cc1ccc(-c2nc(N3[C@H](C)CCC[C@@H]3C)nc3c2CCNCC3)cc1` [Example 71, 2-[(2R,6S)-2,6-dimethyl-1-piperidinyl]-6,7,8,9-tetrahydro-4-(4-methylphenyl)-5H-pyrimido[4,5-d]azepine]: the Ki turned out to be 36 nM in assay [1], 1 nM in assay [2], 9 nM in assay [3] and 19 nM in assay [4].
For the molecule `Cc1ccc(-c2nc(N3CCCC3C)nc3c2CCNCC3)cc1` (stereo not drawn) [Example 72, 6,7,8,9-tetrahydro-4-(4-methylphenyl)-2-(2-methyl-1-pyrrolidinyl)-5H-pyrimido[4,5-d]azepine], the Ki came out at 28 nM in assay [1], 2 nM in assay [2], 4 nM in assay [3] and 32 nM in assay [4].
`Cc1ccc(-c2nc(N3CCCCC3)nc3c2CCNCC3)cc1Cl` [Example 75, 4-(3-chloro-4-methylphenyl)-6,7,8,9-tetrahydro-2-(1-piperidinyl)-5H-pyrimido[4,5-d]azepine]: in assay [4], the Ki was determined as 85.9 nM.
`Cc1ccc(-c2nc(N3CCCCC3)nc3c2CCNCC3)cc1` [Example 78, 6,7,8,9-tetrahydro-4-(4-methylphenyl)-2-(1-piperidinyl)-5H-pyrimido[4,5-d]azepine]: the Ki came out at 2 nM in assay [1], 1 nM in assay [3] and 14 nM in assay [4].
For the molecule `COc1ccc(-c2nc(N3CCC(F)CC3)nc3c2CCNCC3)cc1` [Example 81, 2-(4-fluoro-1-piperidinyl)-6,7,8,9-tetrahydro-4-(4-methoxyphenyl)-5H-pyrimido[4,5-d]azepine], in assay [4], the Ki came to 83 nM.
On to `C[C@@H]1CCC[C@H](C)N1c1nc2c(c(-c3ccc4c(c3)OCCO4)n1)CCNCC2` [Example 87, 4-(2,3-dihydro-1,4-benzodioxin-6-yl)-2-[(2R,6S)-2,6-dimethyl-1-piperidinyl]-6,7,8,9-tetrahydro-5H-pyrimido[4,5-d]azepine], for which, in assay [4], the inhibition constant Ki came out at 82 nM.
For `C[C@@H]1CCC[C@H](C)N1c1nc2c(c(-c3ccc(OC(F)(F)F)cc3)n1)CCNCC2` [Example 90, 2-[(2R,6S)-2,6-dimethyl-1-piperidinyl]-6,7,8,9-tetrahydro-4-[4-(trifluoromethoxy)phenyl]-5H-pyrimido[4,5-d]azepine], the Ki in assay [4] came out at 88 nM.
As to `CC(C)c1ccc(-c2nc(N3CCS(=O)(=O)CC3)nc3c2CCNCC3)cc1` [Example 101, 2-(1,1-Dioxo-1λ^6-thiomorpholin-4-yl)-4-(4-isopropyl-phenyl)-6,7,8,9-tetrahydro-5H-pyrimido[4,5-d]azepine], the values for the Ki in assay [2], in assay [3] and in assay [4] were 650 nM, 3780 nM and 92 nM, respectively.
The matching figures for `c1ccc2ncc(-c3nc(N4CCOCC4)nc4c3CCNCC4)cc2c1` [Example 102, 2-Morpholin-4-yl-4-quinolin-3-yl-6,7,8,9-tetrahydro-5H-pyrimido[4,5-d]azepine]: 300 nM, 360 nM and 70 nM.
As to `FC1(F)CCN(c2nc3c(c(-c4cnc5ccccc5c4)n2)CCNCC3)CC1` [Example 103, 2-(4,4-difluoro-1-piperidinyl)-6,7,8,9-tetrahydro-4-(3-quinolinyl)-5H-pyrimido[4,5-d]azepine], the inhibition constant Ki in assay [4] came out at 42 nM.

The values above are taken from US8829011B2 (Janssen Pharmaceutica NV, priority 2008, dated 2014).
